Experimental data from patent US20260176289A1, “SMALL MOLECULE INHIBITORS OF KRAS PROTEINS” (Merck Sharp & Dohme LLC, priority 2022, published 2026).
Where two headings read alike, the source gives them in different places.

What was measured:
KRAS-G12D = KRAS-G12D (Homo sapiens, UniProt P01116, G12D); experiment: SOS-catalyzed nucleotide exchange assay (Procedure A, TR-FRET), KRAS-G12D; format: biochemical; conditions: nucleotide exchange, read-out: KRAS G12D GNE IC50
How it was run: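 Signal ratio (520/495 nm, excitation 340 nm) reports Bodipy-GDP retention on biotinylated RAS after SOS-catalyzed exchange with 3 mM GTP. SOS was 40 nM, except 160 nM for G12V. Room-temperature exchange lasted 60 min (90 min for G12V), following a 60 min compound preincubation.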

KRAS-G12V = KRAS-G12V (Homo sapiens, UniProt P01116, G12V); experiment: SOS-catalyzed nucleotide exchange assay (Procedure A, TR-FRET), KRAS-G12V; format: biochemical; conditions: nucleotide exchange, read-out: KRAS G12V GNE IC50
KRAS-G12V, sequence (P01116 with tags, fused parts or gaps isoform P01116-2 G12V): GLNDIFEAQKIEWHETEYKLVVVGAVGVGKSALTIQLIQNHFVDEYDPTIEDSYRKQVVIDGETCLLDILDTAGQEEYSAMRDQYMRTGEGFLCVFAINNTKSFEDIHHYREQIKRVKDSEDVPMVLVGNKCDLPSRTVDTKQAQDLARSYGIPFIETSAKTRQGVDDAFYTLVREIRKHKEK
How it was run: (§1)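 TR-FRET 520/495 nm ratio read after SOS-driven exchange of Bodipy-GDP for unlabeled GTP (3 mM) on biotinylated RAS bound to Tb-streptavidin. There was a 60 min compound preincubation, RT. Final RAS/SOS and reaction times: G12C 3 nM/40 nM; WT 1 nM/40 nM; NRAS 1.25 nM/40 nM, each 60 min. G12V was 1.25 nM/160 nM, 90 min.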

KRAS-WT = KRAS-WT (Homo sapiens, UniProt P01116); experiment: SOS-catalyzed nucleotide exchange assay (Procedure A, TR-FRET), KRAS-WT; format: biochemical; conditions: nucleotide exchange, read-out: KRAS WT GNE IC50
KRAS-WT, sequence (P01116 with tags, fused parts or gaps isoform P01116-2): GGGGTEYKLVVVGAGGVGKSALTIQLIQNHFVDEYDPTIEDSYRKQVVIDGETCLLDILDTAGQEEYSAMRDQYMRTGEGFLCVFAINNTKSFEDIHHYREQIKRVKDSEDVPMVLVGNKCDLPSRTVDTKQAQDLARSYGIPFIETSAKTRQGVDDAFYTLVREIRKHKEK
How it was run: as §1

AsPC-1 cells = experiment: Cellular phospho-ERK assay, AsPC-1 cells (homozygous KRAS-G12D); format: cell-based; conditions: Homo sapiens, ASPC1, 2 h, read-out: AsPC1 pERK IC50
How it was run: (§2)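 10k–15k cells/well, o/n attach; cpd 2 h, 37 °C, 10-pt 1:3 from 30 μM final; lyse with protease/phosphatase inhibitors 30 min RT; multiplex SureFire p-ERK + total ERK; IC50 via 4PL on ratio.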

MKN-1 cells = experiment: Cellular phospho-ERK assay, MKN-1 cells (amplified wild-type KRAS); format: cell-based; conditions: Homo sapiens, read-out: MKN1 pERK IC50
How it was run: as §2

SW620 cells = experiment: Cellular phospho-ERK assay, SW620 cells (homozygous KRAS-G12V); format: cell-based; conditions: Homo sapiens, read-out: SW620 pERK IC50
How it was run: as §2

[1] = SW-620, 2 hours compound incubation

KRAS-G12D, sequence (P01116 with tags, fused parts or gaps isoform P01116-2 G12D): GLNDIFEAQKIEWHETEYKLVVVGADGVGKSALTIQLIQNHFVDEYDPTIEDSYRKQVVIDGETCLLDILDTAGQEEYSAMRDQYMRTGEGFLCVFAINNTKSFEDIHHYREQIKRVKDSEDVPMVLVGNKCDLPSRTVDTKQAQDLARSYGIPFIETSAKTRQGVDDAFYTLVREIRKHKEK

SMILES | IC50 (KRAS-G12D) [nM] | IC50 (KRAS-G12V) [nM] | IC50 (KRAS-WT) [nM] | IC50 (AsPC-1 cells; 2 hours compound incubation) [nM] | IC50 (MKN-1 cells; 2 hours compound incubation) [nM] | IC50 (SW620 cells; [1]) [nM] | IC50 (AsPC-1 cells; KRAS-G12D, 2 hours) [nM] | IC50 (MKN-1 cells; amplified wild-type KRAS, 2 hours) [nM] | IC50 (SW620 cells; SW-620, KRAS-G12V, 2 hours) [nM]
C[C@@]1(O)COCCN(c2nc(OC[C@]3(CN4CC5(COC5)C4)CC3(F)F)nc3sc4c(-c5c(C6CC6)c(Cl)cc6[nH]ncc56)nccc4c23)C1 [Ex-213, (6S)-4-(2-(((R)-1-((2-oxa-6-azaspiro [3.3]heptan-6-yl)-methyl)-2,2-difluoro-cyclopropyl)meth-oxy)-8-(6-chloro-5-cyclopropyl-1H-indazol-4-yl)pyrido [4′,3′:4,5]thieno [2,3-d]pyrimidin-4-yl)-6-methyl-1,4-oxazepan-6-ol] | 3.5 | 11.2 | 12.2 | 48.3 | 66.4 | 42.9 |  |  | 
CC1(O)COCCN(c2nc(OCC3(CN4CC5C(F)C5C4)CC3(F)F)nc3sc4c(-c5c(C6CC6)c(Cl)cc6[nH]ncc56)nccc4c23)C1 [Ex-214, (6S)-4-(8-(6-chloro-5-cyclopropyl-1H-indazol-4-yl)-2-(((R)-2,2-difluoro-1-(((1R,5S,6R)-6-fluoro-3-azabicyclo [3.1.0]hexan-3-yl)-methyl)cycloprop-yl)methoxy)pyrido [4′,3′:4,5]thieno[2,3-d]pyrimidin-4-yl)-6-methyl-1,4-oxaze-pan-6-ol] | 62.8 | 243 | 498 | 136 | 171 | 107 |  |  | 
CN1CCC[C@@]2(COc3nc(N4CCOC[C@@](C)(O)C4)c4c(n3)sc3c(-c5c(C6CC6)c(Cl)cc6[nH]ncc56)nccc34)CCC[C@@H]12 [Ex-217, (6S)-4-(8-(6-chloro-5-cyclopropyl-1H-indazol-4-yl)-2-(((4aS,7aR)-1-meth-yloctahydro-4aH-cyclopenta[b]pyridin-4a-yl)meth-oxy)pyrido[4′,3′:4,5]thieno[2,3-d]pyrimi-din-4-yl)-6-methyl-1,4-oxazepan-6-ol] | 3.46 | 13.1 | 8.85 | 47.7 | 46.9 | 10.9 |  |  | 
C[C@@]1(O)COCCN(c2nc(OC[C@@]34C[C@H](F)CN3CC3(CC3)C4)nc3sc4c(-c5c(C6CC6)c(Cl)cc6[nH]ncc56)nccc4c23)C1 [Ex-219, (6S)-4-(8-(6-chloro-5-cyclopropyl-1H-indazol-fluoro-dihydro-1H,3′H-spiro[cyclopropane-1,2′-yl)methoxy)-pyrido[4′,3′:4,5]thieno[2,3-d]pyr-imidin-4-yl)-6-methyl-1,4-oxaze-pan-6-ol] | 82.7 | 196 | 255 | 305 | 318 | 230 |  |  | 
C[C@@]1(O)COCCN(c2nc(OC[C@]34C[C@@H](F)CN3CC3(CC3)C4)nc3sc4c(-c5c(C6CC6)c(Cl)cc6[nH]ncc56)nccc4c23)C1 [Ex-220, (6S)-4-(8-(6-chloro-5-cyclopropyl-1H-indazol-4-yl)-2-(((6R,7a′S)-6′-fluorodihydro-1H, 3H-spiro[cyclopro-pane-1,2′-pyrrol-izin]7a′(5′H)-yl)-methoxy)pyrido [4′,3′:4,5]thieno[2,3-d]pyrimidin-4-yl)-6-methyl-1,4-oxaze-pan-6-ol] | 27.8 | 70.6 | 72.3 | 176 | 171 | 130 |  |  | 
CO[C@@H]1CN2CCC[C@@]2(COc2nc(N3CCOC[C@@](C)(O)C3)c3c(n2)sc2c(-c4c(C5CC5)c(Cl)cc5[nH]ncc45)nccc23)C1 [Ex-228, (6S)-4-(8-(6-chloro-5-cyclopropyl-1H-indazol-4-yl)-2-(((25,7aS)-2-meth-oxytetrahydro-1H-pyrrolizin-7a(5H)-yl)methoxy)pyrido [4′,3′:4,5]thieno[2,3-d]pyrimidin-4-yl)-6-methyl-1,4-oxaze-pan-6-ol] | 16 | 38.2 | 53 | 379 | 180 | 133 |  |  | 
CO[C@H]1CN2CCC[C@@]2(COc2nc(N3CCOC[C@@](C)(O)C3)c3c(n2)sc2c(-c4c(C5CC5)c(Cl)cc5[nH]ncc45)nccc23)C1 [Ex-229, (6S)-4-(8-(6-chloro-5-cyclopropyl-1H-indazol-4-yl)-2-(((2R,7aS)-2-meth-oxytetrahydro-1H-pyrrolizin-7a(5H)-yl)methoxy)pyrido [4′,3′:4,5]thieno[2,3-d]pyrimidin-4-yl)-6-methyl-1,4-oxaze-pan-6-ol] | 6.54 | 19.1 | 22.5 | 109 | 51.9 | 38.2 |  |  | 
CC1(F)CCN(C[C@@]2(COc3nc(N4CCOC[C@@](C)(O)C4)c4c(n3)sc3c(-c5c(C6(F)CC6)c(Cl)cc6[nH]ncc56)nccc34)CC2(F)F)CC1 [Ex-232, (6S)-4-(8-(6-chloro-5-(1-fluorocyclopropyl)-1H-indazol-4-yl)-2-(((R)-2,2-difluoro-1-((4-fluoro-4-methylpiperidin-1-yl)methyl)cyclopropyl)metho-xy)pyrido[4′,3′:4,5]thieno[2,3-d]pyrimidin-4-yl)-6-methyl-1,4-oxazepan-6-ol] | 104 | 197 | 762 | 188 | 84.2 | 117 |  |  | 
C[C@@]1(O)COCCN(c2nc(OC[C@]3(CN4CCC4)CC3(F)F)nc3sc4c(-c5c(C6(F)CC6)c(Cl)cc6[nH]ncc56)nccc4c23)C1 [Ex-239, (6S)-4-(2-(((R)-1-(azetidin-1-ylmethyl)-2,2-difluorocyclopropyl)methoxy)-8-(6-chloro-5-(1-fluorocyclopropyl)-1H-indazol-4-yl)pyrido[4′,3:′4,5]thieno[2,3-d]pyrimidin-4-yl)-6-methyl-1,4-oxazepan-6-ol] | 1.85 | 11.4 | 8.2 | 54.5 | 33.7 | 29.4 |  |  | 
C[C@@]1(O)COCCN(c2nc(OC[C@]3(CN4CC5(CCOCC5)C4)CC3(F)F)nc3sc4c(-c5c(C6(F)CC6)c(Cl)cc6[nH]ncc56)nccc4c23)C1 [Ex-248, (6S)-4-(2-(((R)-1-((7-oxa-2-azaspiro[3.5]nonan-2-yl)methyl)-2,2-difluorocyclopropyl)methoxy)-8-(6-chloro-5-(1-fluorocyclopropyl)-1H-indazol-4-yl)pyrido[4′,3′:4,5]thieno[2,3-d]pyrimidin-4-y1)-6-methyl-1,4-oxazepan-6-ol] | 3.09 | 15.5 | 12.5 | 45.7 | 36.3 | 42.8 |  |  | 
C[C@@]1(O)COCCN(c2nc(OC[C@]3(CN4CCC5(CC5)C4)CC3(F)F)nc3sc4c(-c5c(C6(F)CC6)c(Cl)cc6[nH]ncc56)nccc4c23)C1 [Ex-262, (6S)-4-(2-(((R)-1-((5-azaspiro[2.4]heptan-5-yl)methyl)-2,2-difluorocyclopropyl)methoxy)-8-(6-chloro-5-(1-fluorocyclopropyl)-1H-indazol-4-yl)pyrido[4′,3′:4,5]thieno[2,3-d]pyrimidin-4-yl)-6-methyl-1,4-oxazepan-6-ol] | 4.44 | 26.7 | 22.2 | 119 | 52.4 | 66.1 |  |  | 
CN(C)C1COC2C[C@@]21COc1nc(N2CCOC[C@@](C)(O)C2)c2c(n1)sc1c(-c3c(C4(F)CC4)c(Cl)cc4[nH]ncc34)nccc12 (stereo partly drawn) [Ex-269, (6S)-4-(8-(6-chloro-5-(1-fluorocyclopropyl)-1H-indazol-4-yl)-2-((4-(dimethylamino)-2-oxabicyclo[3.1.0]hexan-5-yl)methoxy)pyri-do[4′,3′:4,5]thi-eno[2,3-d]pyrimidin-4-yl)-6-methyl-1,4-oxazepan-6-ol] | 8.13 | 20 | 24.9 | 182 | 90.1 | 84.5 |  |  | 
C[C@@]1(O)COCCN(c2nc(OC[C@@]34CCCN3CC(=C(F)F)C4)nc3sc4c(-c5c(C6(F)CC6)c(Cl)cc6[nH]ncc56)nccc4c23)C1 [Ex-272, (6S)-4-(8-(6-chloro-5-(1-fluorocyclopropyl)-1H-indazol-4-yl)-2-(((S)-2-(difluoromethylene)tetra-hydro-1H-pyrrolizin-7a(5H)-yl)methoxy)pyri-do[4′,3′:4,5]thi-eno[2,3-d]pyrimidin-4-yl)-6-methyl-1,4-oxazepan-6-ol] | 3.18 | 19.4 | 29.3 |  |  |  | 62.4 | 50.5 | 29.4
